Laboratory results taken from publication PMC12248599, “Exploring the Bioavailability of Red Grape Skin Extract Polyphenols: A Caco-2 Cell Model Study” (Foods, 2025).
Values joined by “and” are separate entries in the source; they are usually repeats but may differ in a detail not shown here. Equal values may be shown once. “Also recorded” adds a separate entry of the source. Marks after values point to notes of the source that are not given here.

System: Caco-2 cell monolayer
Assay: Caco-2 monolayer transport (bioavailability) study, AB and BA directions
Type: in vitro ADME, Homo sapiens
Details: for TE (%) transport efficiency: after 180 min
Experimental: A reversed phase C18 column (Luna 5 μm C18(2) 100 Å, LC Column 250 × 4.6 mm, Phenomenex) was used to separate the polyphenols at a flow rate of 0.7 mL/min with an injection volume of 60 µL. The detection was carried out at 520 nm for anthocyanins (M3G, D3G and Pet3G), at 328 nm for CA, at 356 nm for flavonols (Q3G, K3Gal and K3G) and at 280 nm for GA and SA. The mobile phases were (A) acetonitrile 100% and (B) water 0.1% trifluoroacetic acid (v/v). The gradient was programmed as follows: 10% A 0 min, 10–80% A (0–20 min), 80–100% A (20–25 min), 100% A (25–30 min); 10% A (30–35 min) and 10% A (35–40 min). Every polyphenol was quantified using the corresponding reference standard calibration curve. Each of the quantified phenolic compound concentration was expressed as mg/mL
For the transport experiment Caco-2 cells were cultured at a density of 4 × 10^4 cells/cm^2 in Transwell inserts (12 mm i.d., 1.12 cm^2 growth area, 0.4 µm mean pore size polycarbonate membranes, Corning Inc., Milwaukee, WI, USA) placed in 12-well plates. Caco-2 cells were grown in DMEM in an incubator at 37 °C in a humidified atmosphere containing 5% CO2.
Bioavailability studies were performed in triplicate after 21 days of cell growth. Only inserts with stable TEER values higher than ≥300 Ω cm^2 were considered acceptable to perform the bioavailability study. For that purpose, DMEM media was removed, the monolayer was washed with PBS and HBSS was supplied to the cells.
Likewise, the GSE stock solution was diluted in HBSS medium to prepare GSE solutions S1 and S2. GSE solutions S1 and S2 had concentrations of 15 mg/mL and 22 mg/mL, respectively. These concentrations were established considering previous studies with grape pomace extracts that concluded that intestinal concentrations of 1–2% (w/v) show potential bioactivities and are safe to be used as a food ingredient.
The apical side represents the intestinal lumen and the basolateral side represents the bloodstream. Each sample (100 µL) was immediately acidified with 1M HCl to a final concentration of 0.007 M and subsequently frozen at −20 °C until analysis by HPLC (according to the method described in Section 2.5). Each experiment was carried out on 3 individual wells. The transport efficiency (TE) percentage was calculated according to Equation (2):Transport efficiency (%) = (C/C0) × 100(2) where, C is the polyphenol concentration at the acceptor side over time and C0 is the initial concentration at the donor side. TE values were calculated for the nine polyphenols identified in the grape skin extract.
The apparent permeability coefficient (Papp) of the polyphenols in GSE was calculated for apical to basolateral side (AB) and basolateral to apical side (BA) flux studies according to Equation (3):Papp (cm/s) = (dQ/dt) × (VR/AC0)(3) where, dQ/dt is the permeability rate which means the steady-state linear rate of change of concentration (mg/L) per second (s) at the acceptor side; A is the surface area of the cell monolayer (1.12 cm^2). C0 is the initial concentration at the donor side (mg/L) at t = 0 s and VR is the volume of the solution of the acceptor side (mL).
The efflux ratio (ER) of the polyphenol was assessed by calculating the Equation (4):ER = Papp (BA)/Papp (AB)(4) where, Papp (BA) is the apparent permeability coefficient of the polyphenol from basolateral to apical side and Papp (AB) is the apparent permeability coefficient from apical to basolateral side. ER is a measure of the relative contributions of active and passive transport to bi-direction flux across the cell monolayer.

[1] = AB experiment, donor side, S1 (15 mg/mL GSE)
[2] = AB experiment, donor side, S2 (22 mg/mL GSE)
[3] = BA experiment, acceptor side, S1 (15 mg/mL GSE)
[4] = BA experiment, acceptor side, S2 (22 mg/mL GSE)
[5] = BA experiment, donor side, S1 (15 mg/mL GSE)
[6] = BA experiment, donor side, S2 (22 mg/mL GSE)

Row | SMILES | Apical Side 0 min [1] | Apical Side 75 min [1] | Apical Side 90 min [1] | Apical Side 115 min [1] | Apical Side 180 min [1] | Apical Side 0 min [2] | Apical Side 75 min [2] | Apical Side 90 min [2] | Apical Side 115 min [2] | Apical Side 180 min [2] | Basolateral Side 0 min [5] | Basolateral Side 75 min [5] | Basolateral Side 90 min [5] | Basolateral Side 115 min [5] | Basolateral Side 180 min [5] | Basolateral Side 0 min [6] | Basolateral Side 75 min [6] | Basolateral Side 90 min [6] | Basolateral Side 115 min [6] | Basolateral Side 180 min [6] | further results
1 | O=c1c(O[C@@H]2O[C@H](CO)[C@@H](O)[C@H](O)[C@H]2O)c(-c2ccc(O)c(O)c2)oc2cc(O)cc(O)c12 [Q3G, quercetin-3-glucoside] | 0.23 ± 0.01 ^a mg/L | 0.18 ± 0.01 ^b mg/L | 0.14 ± 0.01 ^c mg/L | 0.10 ± 0.00 ^d mg/L | 0.08 ± 0.00 ^c mg/L | 0.61 ± 0.01 ^a mg/L | 0.52 ± 0.01 ^b mg/L | 0.47 ± 0.01 ^c mg/L | 0.41 ± 0.01 ^d mg/L | 0.37 ± 0.01 ^c mg/L | 0.28 ± 0.02 ^a mg/L | 0.24 ± 0.02 ^b mg/L | 0.21 ± 0.02 ^c mg/L | 0.18 ± 0.01 ^d mg/L | 0.15 ± 0.01 ^c mg/L | 0.41 ± 0.03 ^a mg/L | 0.38 ± 0.03 ^a,b mg/L | 0.36 ± 0.03 ^a,b,c mg/L | 0.34 ± 0.03 ^b,c mg/L | 0.32 ± 0.03 ^c mg/L | detection at the acceptor side (AB experiments, basolateral side): not detected; TE (%) transport efficiency (BA experiment, S1 (15 mg/mL GSE)): 4.1 ± 0.1%; TE (%) transport efficiency (BA experiment, S2 (22 mg/mL GSE)): 3.6 ± 0.1%; Apical Side 75 min [3]: 0.009 ± 0.001 ^b mg/L; Apical Side 90 min [3]: 0.010 ± 0.001 ^b,c mg/L; Apical Side 115 min [3]: 0.011 ± 0.001 ^c mg/L; Apical Side 180 min [3]: 0.011 ± 0.001 ^c mg/L; Apical Side 75 min [4]: 0.013 ± 0.001 ^b mg/L; Apical Side 90 min [4]: 0.013 ± 0.001 ^b,c mg/L; Apical Side 115 min [4]: 0.014 ± 0.001 ^c,d mg/L; Apical Side 180 min [4]: 0.015 ± 0.001 ^d mg/L; detection at the acceptor side (BA experiments, apical side): detected; also recorded: quantified
2 | COc1cc(C(=O)O)cc(OC)c1O [SA, syringic acid] | 0.70 ± 0.03 mg/L and 0.70 ± 0.03 ^a mg/L | 0.54 ± 0.03 ^b mg/L | 0.42 ± 0.03 ^c mg/L | 0.32 ± 0.03 ^d mg/L | 0.23 ± 0.03 mg/L and 0.23 ± 0.03 ^c mg/L | 1.48 ± 0.06 mg/L and 1.48 ± 0.06 ^a mg/L | 1.21 ± 0.04 ^b mg/L | 1.03 ± 0.03 ^c mg/L | 0.82 ± 0.02 ^d mg/L | 0.67 ± 0.03 mg/L and 0.67 ± 0.03 ^c mg/L | 0.84 ± 0.08 ^a mg/L | 0.72 ± 0.07 ^a,b mg/L | 0.63 ± 0.07 ^b,c mg/L | 0.53 ± 0.06 ^c,d mg/L | 0.44 ± 0.06 ^d mg/L | 1.1 ± 0.1 ^a mg/L | 1.10 ± 0.09 ^a,b mg/L | 1.03 ± 0.09 ^a,b,c mg/L | 0.96 ± 0.08 ^b,c mg/L | 0.90 ± 0.08 mg/L and 0.901 ± 0.08 ^c mg/L | detection at the acceptor side of the Caco-2 cell monolayer (AB and BA experiments): not detected; reduction in concentration on the apical (donor) side (AB experiment, S1 (15 mg/mL GSE), 0 to 180 min): 67 ± 4%; reduction in concentration on the apical (donor) side (AB experiment, S2 (22 mg/mL GSE), 0 to 180 min): 55 ± 2%; reduction in concentration on the basolateral (donor) side (BA experiment, S2 (22 mg/mL GSE), 0 to 180 min): 23 ± 1%; detection at the acceptor side (BA experiments, apical side): detected
